The values below come from patent US20250262167A1, “COMPOUNDS, TARGETS AND PATHWAYS FOR MACROPHAGE MODULATION” (Massachusetts Institute of Technology, priority 2020, published 2025).

One assay relates to M0 macrophages (hMDMs). Nature of the assay: Dosage response of cell shape change on M0 macrophages. It is filed as cell-based, human. The conditions noted are these: M0 macrophages; for EC: EC = concentration inducing cell morphology changes to reach the M1 or M2 Z-score cutoff, Michaelis-Menten fit, 3 independent experiments, unit of the source corrected; for Max absolute Z-value: Max Z-score from Michaelis-Menten equation, negative = round, positive = elongated.

In assay [1] the test system is ImKCs (immortalized line of mouse Kupffer cells). In words: Seahorse ECAR/OCR (glycolysis, OxPhos) in ImKCs. Format: cell-based. The conditions noted are these: ImKCs, S1P 3 mM, 24 hrs. On the procedure: Shown are representative data of three independent experiments. […] Data are presented as the mean±sd (n=4).
FIGS. 21A-21I show DPI stimulates glycolysis through GPR3 and β-arrestin2. FIGS. 21A-21B show DPI-stimulated glycolysis is independent of the NOX activity. […] The mean fluorescence intensity (MFI) of 2-NBDG in cells was measured by flow cytometry and normalized to DMSO controls of wildtype BMDMs. Data are presented as the mean±sd (n=3). […] ImKCs were transfected with siRNA specific for Gpr3 or a scramble siRNA as control. […] Data are presented as the mean±sd (n=4). […] Data are presented as the mean±sd (n=12). […] Abbr2^−/− ImKC were constructed by CRISPR-Cas9-mediated gene editing. […] Data are presented as the mean±sd (n=4). […] ImKCs were transfected with Abbr2-GFP fusion gene and stimulated with DMSO, DPI (50 nM), or S1P (3 mM). The GFP signal was captured with a TIRF microscope at indicated time points. Shown are representative data of GFP signal at 0 min and 10 min, and merged signal from three independent experiments.
Specific parameters for glycolytic capacity and glycolytic reserve were calculated and summarized based on two independent experiments. […] The GFP signal was captured with a TIRF microscope at indicated time points. Shown are representative data of GFP signal at 0 min and 10 min, and the merged signal from three independent experiments.
OCR and ECAR were measured in isolated tissues or cultured ImKCs using the Seahorse XFe Extracellular Flux Analyzer (Agilent). For tissue respiration assays, 1.0 mg adipose tissue was dissected from inguinal WAT depots by using a surgical biopsy instrument (Integra Miltex Standard Biopsy Punches, Thermo Fisher) and placed into XF96 Islet Capture Microplates and pre-incubated with XF assay medium with pH value at 7.4. XF assay medium supplemented with 1 mM sodium pyruvate, 2 mM GlutaMax™-I, and 25 mM glucose. Isolated MDMs or Kupffer cells were subjected to a mitochondrial stress test by adding oligomycin (2 μM) followed by carbonyl cyanide 4-(trifluoromethoxy), phenylhydrazone (FCCP, 5 μM), and antimycin (1 μM). For glucose stress assay and ECAR measurement, XF assay medium was supplemented only with GlutaMax™-I. Tissue or cells were subjected to a glucose stress test by adding highly concentrated glucose (for tissue, 25 mM; for cells, 10 mM), followed by adding oligomycin (5 μM), FCCP (5 μM), and 2-DG (50 mM). Cells were seeded in culture dishes, and the medium was changed after 6 hours with serum-free DMEM. Cells were incubated for 12-16 hours, and the culture medium was then collected for measurement of glucose and lactate concentrations. Glucose levels were determined using a glucose (GO) assay kit (Sigma). Glucose consumption was the difference in glucose concentration when compared with DMEM. Lactate levels were determined using a lactate assay kit (Eton Bioscience).
DPI is an agonist of GPR3 and an inhibitor of […] oxidase (NOX). We first determined the requirement of NOX in DPI-stimulated glycolysis.
To determine the requirement of GPR3, we knocked down GPR3 by siRNA (siGpr3) in ImKCs.
β-arrestin2, encoded by Arrb2, has been reported to bind to GPR3 and is required for GPR3 signaling. To investigate the requirement of 0-arrestin2 in DPI-stimulated glycolysis, we constructed Arrb2^−/− ImKCs using CRISPR-Cas9 mediated gene editing (FIG. 28F).

In assay [2] the test system is hMDMs differentiated into M2 by IL-4 plus IL-13. In words: Reprogramming screen and dosage response on M2-like differentiated macrophages.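 On all read-outs here: human monocyte-derived macrophages held 24 h in 5 ng/mL IL-4 plus IL-13 before 24 h compound exposure, with cell shape measured from images in 384-well plates.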 The conditions noted are these: for EC: M1-activating compounds on M2-like macrophages (IL-4 plus IL-13), EC = concentration reaching Z-score cutoff; for Category: differentiated macrophages; for EC (M1 Z-score cutoff): Homo sapiens, Macrophage, 24 h, read-out: EC.
Method: Shown are comparison of Z-scores between 5 μM or 10 μM of compounds. […] Shown are comparison of Z-scores between 5 μM or 10 μM of compounds. […] EC and fitness of 21 M1-polarizing (triangle) and 19 M2-polarizing compounds (circle) were calculated by the Michaelis-Menten equation and plotted. Data were summarized from 3 independent experiments.
(§1) Human macrophages were seeded into optical 384-well plates. Sixteen hours later, medium in M1 plates were replaced by M1 differentiating medium (complete RPMI with 50 ng/mL IFNγ and 50 ng/mL TNFα) and medium in M2 plates by M2 differentiating medium (complete RPMI with 5 ng/mL IL-4 and 5 ng/mL IL-13). After 24 hrs cell differentiation, M1 plates (M1 macrophages) and M2 plates (M2 macrophages) were treated with M2-activating compounds and M1-activating compounds respectively for 24 hrs. Two independent experiments were performed with or without replacing differentiating medium right before treatment. Cell imaging and analysis were performed as indicated above.
To investigate whether the identified compounds could reprogram or reactivate macrophages after M1- or M2-like differentiation, we rescreened the hits on M1- or M2-activated macrophages. hMDMs were activated into M2-like macrophages by IL-4 plus IL-13 or M1-like macrophages by IFNγ plus TNFα. After removing the differentiating cytokines, M2-like macrophages were treated with each of the 166 M1-activating compounds and M1-like macrophages were treated with each of the 180 M2-activating compounds at a final concentration of either 5 μM and 10 μM. 24 hours later, cell images were taken and cell shapes were quantified. […] Dosage responses were carried out with 40 commercial available compounds (21 M1-activating and 19 M2-activating) on polarized macrophages.
(§2) We also rescreened the hits on differentiated macrophages in the presence of differentiating cytokines: either IL-4 plus IL-13 or IFNγ plus TNFα.

Assay [3] deals with mouse bone marrow macrophages (BMMs). In words: Development and function of TAM/M2-like macrophages in vitro (qPCR, flow cytometry). Format: cell-based. The conditions noted are these: mouse BMMs, induced by IL4/IL13, 24 hours. On the procedure:
DEGs were identified by edgeR at P<0.05 with at least 2 fold-change. Data for genes that were not classified as differentially expressed are plotted in black. […] Mouse BMMs were cultured in normal medium with or without 2.5 μM thiostrepton for 24 hrs (group 1), or cultured in B16F10 tumor cell conditioned medium (CM) with or without 2.5 μM thiostrepton for 24 hrs (group 2), or cultured with B16F10 tumor cell CM for 24 hrs first and then treated with 2.5 μM thiostrepton for another 24 hrs (group 3). The transcript levels of the indicated genes were quantified by qPCR. Data were summarized from two independent experiments. […] Mouse BMMs were treated with thiostrepton for 24 hrs. Untreated and treated macrophages were co-cultured with equal number of B16F10 melanoma cells for 12 hrs. The number of tumor cells were quantified by flow cytometry after subtracting macrophages from total number of cells. Data were summarized from three independent experiments. ** P<0.01 by T-test.
Expression of MHCII, CD80, iNOS, Arg1 and CD206 were quantified by flow cytometry. Shown are representative staining profiles of treated (red) and untreated (dark) TAMs from two independent experiments. […] Alternatively, mouse BMMs were polarized with IL-4/IL-13 (group 3) or lactic acid (group 5) for 24 hrs first and then either not treated or treated with […] thiostrepton for another 24 hrs. The transcript levels of the indicated genes were quantified by qPCR. Data are summarized from two independent experiments.
Mouse BMMs were not treated or treated with […] thiostrepton for 24 hours in normal medium (group 1) or in the presence of IL4/IL13 (group 2), or mouse BMMs were polarized with IL4/IL13 for 24 hours and then either not treated or treated with […] thiostrepton for 24 hours (group 3). RNA was isolated and the transcript levels of the indicated genes were quantified by PCR. Data, shown as mean±s.d., were summarized from two independent experiments. * P<0.05 and ** P<0.01 by T-test. […] Data are shown as mean±s.e.m. FIGS. 19C-19D show flow cytometry analysis of TAM (F4/80^+CD11b^+Ly6C^−Ly6G^−), inflammatory monocytes (F4/80′^intCD11b^+Ly6C^+Ly6G^−) and monocytes (F4/80^−CD11b^+Ly6C^+Ly6G^+) in the tumors of mice treated with DMSO, TA99, cucurbitacin I, and cucurbitacin I plus TA99 18 days after tumor engraftment. Shown are representative F4/80 versus CD11b staining profiles gating on CD45+ cells and MHCII histograms gating on macrophages from c.
Mouse bone marrow-derived macrophages (mBMM) were prepared as described previously^54. Briefly, fresh bone marrow cells were isolated from B6 mice. Cells were plated into 6-well plate with 1×10^6/mL in complete RPMI with 2-mercaptoethanol and cultured for 6 days with fresh medium change every 2 days. mBMMs were differentiated to resemble TAMs in the presence of 10 ng/mL mIL-4 and mIL-13 (Peprotech) or 25 mM lactate acid for 24 hrs or tumor conditioned medium (CM). To prepare CM, 70% confluent B16F10 cultured were replaced with fresh medium and the tumor medium was collected and filtered ([…]) 24 hrs later. The mixture of 3 volumes of tumor medium with 1 volume of complete RPMI for mBMM serves as the CM. Expression of Arg, Fizz1 and Vegfa were quantified by qPCR to assess the development of TAMs. Other genes of Tnf, Il1b, Nos2, Cxcl2, Ccl5, Ym1 and Tgfb serve as macrophage activating markers. To assay the tumor growth inhibition, mBMMs (10,000 cells per well in 96 well plate) were treated with thiostrepton for 24 hrs and then cocultured with equal number of B16 melanoma cells in fresh complete RPMI for 12 hrs. The conditioned medium treated or not treated with thiostrepton were collected and filtered. The numbers of B16 melanoma cells were cultured for 12 hrs with conditioned medium or conditioned medium heated at 95° C. for 5 min. Tumor cells were quantified by flow cytometry to determine the macrophage-dependent killing function. […]

Assay [4] relates to subcutaneous B16F10 tumors. In words: B16F10 melanoma model in B6 mice. It is filed as in vivo, mouse. The note with it: i.p. 1 mg/kg.
For the next assay, the system named is hMDMs. In words: RNA-seq transcriptional response of hMDMs (GSEA, GO enrichment). Format: cell-based, human. The conditions noted are these: for macrophage phenotype at transcriptional and translational level: human macrophages; for gene expression of TPP modules (#30, #32) / gene expression of typical M1 modules (#7, #8): hMDMs, 24 hrs, GSEA.
Assay [5] concerns human monocyte-derived macrophages (hMDMs). Nature of the assay: High throughput phenotypic screen of macrophage activation (cell shape, Z-score).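 On all read-outs here: phalloidin and DAPI stained hMDMs imaged by high-content microscopy, cell eccentricity compared with DMSO control by T-test, round morphology scored negative, elongated positive.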 It is filed as cell-based. Also noted: key to Average Z-value: Z-score vs DMSO; negative = round cells, positive = elongated. The note with it: for activation state induced in the screen: compounds regulating actin-cytoskeleton.
For assay [6], the system named is hMDMs differentiated into M1 by IFNγ plus TNFα. In words: Reprogramming screen and dosage response on M1-like differentiated macrophages. It is filed as cell-based, human. The note with it: for EC (M2 Z-score cutoff): M2-activating compounds on M1-like macrophages (IFNγ plus TNFα), EC = concentration reaching Z-score cutoff.
Method: Data were summarized from 3 independent experiments.
as §1
To investigate whether the identified compounds could reprogram or reactivate macrophages after M1- or M2-like differentiation, we rescreened the hits on M1- or M2-activated macrophages. hMDMs were activated into M2-like macrophages by IL-4 plus IL-13 or M1-like macrophages by IFNγ plus TNFα. […] 24 hours later, cell images were taken and cell shapes were quantified.
as §2

As for `CN1c2cc3c(cc2N=C(c2ccc(C(=O)O)cc2)c2ccccc21)C(C)(C)CCC3(C)C` [LE135], in the assay on M0 macrophages (hMDMs), the Category result is on record as “M1 (−4 for M1-activated macrophages)”, the EC was 0.419 µM and the “Max absolute Z-value” is reported as −8.912.
As to `CCCCCCCCCCCCC/C=C/[C@@H](O)[C@@H](N)COP(=O)(O)O` [S1P, sphingosine-1-phosphate], the glycolysis result in assay [1] is on record as “significant increase”.
In the case of `CC(C)(O)/C=C/C(=O)[C@](C)(O)[C@H]1[C@H](O)C[C@@]2(C)[C@@H]3CC=C4[C@@H](C=C(O)C(=O)C4(C)C)[C@]3(C)C(=O)C[C@]12C` [Cucurbitacin I], in assay [2], the EC was determined as 1.759 µM and the Category result is recorded as “M1 (−4 for M1-activated macrophages)”. Besides, in the assay on M0 macrophages (hMDMs), the Category entry is listed as “M1 (−4 for M1-activated macrophages)”, the EC was determined as 0.342 µM and the “Max absolute Z-value” is given as −4.808. Also, the “development and function of tumor-associated macrophages in vitro” value in assay [3] is “inhibits”. Further, the B16F10 growth entry in assay [4] is “inhibited”.
For the compound `CC(=O)O[C@H]1C(=O)[C@@]2(C)[C@H]([C@H](OC(=O)c3ccccc3)[C@]3(O)C[C@H](OC(=O)[C@H](O)[C@@H](NC(=O)c4ccccc4)c4ccccc4)C(C)=C1C3(C)C)[C@]1(OC(C)=O)CO[C@@H]1C[C@@H]2O` [Taxol], the “macrophage phenotype at transcriptional and translational level” value in the assay on hMDMs was “activated macrophages toward M1-like phenotype”. Further, the EC (M1 Z-score cutoff) in assay [2] turned out to be 0.129 µM. Also, in assay [5], the “activation state induced in the screen” value is given as “M1-activating”.
`O=C(Nc1nc2ccc(NC(=O)C34CC5CC(CC(C5)C3)C4)cc2s1)c1ccccc1` [NVP 231]: in assay [2], the EC was 5.745 µM and the Category result was “M1 (−4 for M1-activated macrophages)”. In addition, in the assay on M0 macrophages (hMDMs), the Category entry is recorded as “M1 (−4 for M1-activated macrophages)”, the EC stood at 2.25 µM and the “Max absolute Z-value” is given as −22.37. For the same compound, the “Average Z-value” in assay [5] (cell shape Z-score of hMDMs treated with compound at 20 µM for 24 hours, averaged over the compounds listed for the WikiPathways pathway, negative = M1-like, positive = M2-like) is recorded as −4.79.
Consider `CC(C)C[C@H](NC(=O)CNC(=O)c1cc(Cl)ccc1Cl)B(O)O` [MLN2238], for which, in assay [6] (Homo sapiens, Macrophage, 24 h), the EC (M2 Z-score cutoff) came to 3.46 µM. In addition, in assay [5] (cell shape Z-score of hMDMs averaged over the compounds listed for the Wiki pathway, compounds at 20 µM for 24 hours, positive values = M2-like), the “Average Z-value” is on record as 7.13.
Take `NCCc1c[nH]c2ccc(O)cc12` [5HT, serotonin]: in the assay on hMDMs, the “gene expression of TPP modules (#30, #32)” value is on record as “down-regulated” and the “gene expression of typical M1 modules (#7, #8)” value is on record as “up-regulated”.
Taken in the same sequence, the figures for `NCCc1ccc(O)c(O)c1` [dopamine] were “up-regulated” and “down-regulated”.
On the same counts, the results for leptin: ligand of novel pathway are “down-regulated” and “up-regulated”.
Take `OC[C@H](Cc1ccccc1)Nc1nc(Oc2ccc3c(c2)CCC3)nc2c1ncn2Cc1ccc(-c2ccccc2)cc1` [QS 11]: the EC (M2 Z-score cutoff) in assay [6] worked out at 0.2611 µM. Further, the Category entry in assay [6] (differentiated macrophages) is given as “M2 (6 for M2-activated macrophages)”.
Regarding VEGF, in the assay with hMDMs, the “gene expression of TPP modules (#30, #32)” value was “down-regulated” and the “gene expression of typical M1 modules (#7, #8)” value is given as “up-regulated”.
As to `Cc1c(C(=O)Nc2ccc(N3C[C@@H](C)O[C@@H](C)C3)nc2)cccc1-c1ccc(OC(F)(F)F)cc1` [NVP-LDE225], the EC (M2 Z-score cutoff) in assay [6] (Homo sapiens, Macrophage, 24 h) was found to be 2.77 µM.
The same measure, in the same setting: the figure for `c1ccc2c(Oc3nc(Nc4ccc(N5CCOCC5)cc4)c4ncn(C5CCCCC5)c4n3)cccc2c1` [Purmorphamine] is 2.35 µM; for `CC(C)[C@]12O[C@H]1[C@@H]1O[C@]13[C@]1(O[C@H]1C[C@H]1C4=C(CC[C@@]13C)C(=O)OC4)[C@@H]2O` [triptolide] it is 0.0619 µM.
For the compound `COC(=O)Nc1nc2ccc(Sc3ccccc3)cc2[nH]1` [Fenbendazole], the “macrophage phenotype at transcriptional and translational level” value in the assay with hMDMs was “activated macrophages toward M1-like phenotype”. Moreover, the EC (M1 Z-score cutoff) in assay [2] amounted to 0.649 µM. Moreover, the “activation state induced in the screen” value in assay [5] is listed as “M1-activating”.
